Measurements: patent US20190388421A1, “NOVEL COMPOUNDS AND PHARMACEUTICAL COMPOSITIONS THEREOF FOR THE TREATMENT OF FIBROSIS” (Galapagos NV, priority 2016, published 2019)
pEC50: −log10 of the molar value.

What was measured:
[1] = molecular target: T1, human GPCR sphingosine 1-phosphate receptor 1 (S1PR1) (Homo sapiens, UniProt P21453); assay: S1PR1 selectivity assay (Ca2+ flux, antagonist); assay type: cell-based; conditions: S1P1 antagonist EC50, CHO cells overexpressing human S1PR1 and Gq protein
T1 construct: host or cells: CHO
T1 sequence (P21453 whole entry): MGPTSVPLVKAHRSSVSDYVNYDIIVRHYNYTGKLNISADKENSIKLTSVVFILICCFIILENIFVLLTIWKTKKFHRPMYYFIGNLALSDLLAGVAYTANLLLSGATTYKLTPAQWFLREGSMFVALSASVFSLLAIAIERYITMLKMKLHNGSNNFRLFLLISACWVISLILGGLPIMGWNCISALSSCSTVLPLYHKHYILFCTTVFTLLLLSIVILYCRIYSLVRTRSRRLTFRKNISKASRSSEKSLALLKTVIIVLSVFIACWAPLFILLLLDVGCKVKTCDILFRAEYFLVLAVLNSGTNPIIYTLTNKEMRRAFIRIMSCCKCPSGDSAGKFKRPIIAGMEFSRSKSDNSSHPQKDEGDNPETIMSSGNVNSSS
Experimental: (§1) After readout of the agonist activity, the plates are incubated for 15 min at 37° C. and 5% CO2. Then, cells are stimulated with 10 μL Sphingosine-1-Phosphate (S1P) (Avanti Polar lipids-860492P) at its EC80 concentration. Intracellular Ca^2+ changes are immediately measured by reading fluorescence during 3 min (FDSS/μCELL reader). The ratio of the maximal fluorescence over the background fluorescence before compound injection is used to determine compound response.
(§2) For EC50 determination, a 10 point dilution series of compounds starting from 23.3 μM and 20 μM highest final concentration for agonist and antagonist respectively, ⅓ dilution was performed.
(§3) The obtained ratio's for agonist and antagonist readout were normalized versus vehicle and EC100 of S1P as controls for agonist mode and versus vehicle and EC80 of S1P for antagonist mode. From these normalized data EC50 of the compounds are derived.
(§4) To evaluate the selectivity of the compounds for S1PR2 over S1PR1 and S1PR5, a similar assay set up as described above for the S1PR2 calcium flux assays was performed: CHO cells stably overexpressing human GPCR sphingosine 1-phosphate receptor 1 and Gq protein (Euroscreen, FAST-0197A) or overexpressing human GPCR sphingosine 1-phosphate receptor 5 and Gq protein were used (Perkin Elmer, ES-593-A). In case of the S1PR5 assay triggering was done with an S1PR5 specific agonist instead of with S1P (Hobson et al., 2015).

[2] = molecular target: T2, human GPCR sphingosine 1-phosphate receptor 2 (S1PR2) (Homo sapiens, UniProt O95136); assay: S1P2 antagonist assay (Ca2+ flux, S1P at EC80); assay type: cell-based; conditions: CHO-S1PR2 cells, highest concentration 20 μM
T2 construct: host or cells: CHO
T2 sequence (O95136 whole entry): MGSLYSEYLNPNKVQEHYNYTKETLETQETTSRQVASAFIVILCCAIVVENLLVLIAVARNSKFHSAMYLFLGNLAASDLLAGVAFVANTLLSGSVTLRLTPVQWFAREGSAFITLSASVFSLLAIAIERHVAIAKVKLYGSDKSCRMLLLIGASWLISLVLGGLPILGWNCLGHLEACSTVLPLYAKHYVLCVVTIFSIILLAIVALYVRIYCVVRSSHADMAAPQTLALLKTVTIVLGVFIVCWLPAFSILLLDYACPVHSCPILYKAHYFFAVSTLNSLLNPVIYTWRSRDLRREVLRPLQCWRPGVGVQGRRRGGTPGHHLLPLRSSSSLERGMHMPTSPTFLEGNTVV
Experimental: Triggering of S1PR2 by administration of Sphingosine-1-phosphate leads to a transient increase in intracellular Ca^2+. The Ca^2+ flux assays are measuring the release of Ca^2+ intracellularly by use of a Ca^2+ sensitive fluorescent dye. The assay is firstly run in agonist mode (incubation of compounds alone) to ensure that the Ca^2+ released measured is not caused by the test compound having an agonistic effect. Then the assay is continued in antagonist mode (Sphingosine-1-Phosphate added to incubated medium containing the test compounds).
CHO cells stably overexpressing human GPCR sphingosine 1-phosphate receptor 2 (CHO—S1PR2 Perkin Elmer; ES-594-A) are seeded from a frozen stock in 384 wells sterile microplates (50 μL; 7,500 cells/well) and are incubated overnight at 37° C. and 5% CO2. The next day cells are washed twice with starvation medium (F-12 Ham's medium containing 0.1% BSA (Fatty acid free: FAF)) and left in […] starvation medium for 1 h at 37° C., 5% CO2. After this starvation cells are incubated with […] buffer containing the Ca^2+-sensitive fluorescent dye (0.5 mg Fluo8+125 mg Allura Red in 100 ml of 1% DMSO, in HBSS+20 mM Hepes+5 mM probenecid). The cells are incubated for an additional 1 hour after which 10 μL compounds, diluted in HBSS buffer with 20 mM Hepes and 0.1% BSA (FAF), are added to the cells and intracellular Ca^2+ changes are immediately measured by reading fluorescence during 3 min (FDSS/μCELL reader). The ratio of the maximal fluorescence over the background fluorescence before compound injection is used to determine compound response.
as §1, §2, §3

S1PR2 = molecular target: T3, S1PR2 (Homo sapiens, UniProt O95136); assay: GTP-γS binding assay ([35S]GTPγS, S1P at EC80, S1PR2 membranes); assay type: biochemical; conditions: membranes from stable cell line over expressing S1PR2, read-out: S1PR2 EC
T3 construct: expressed in transfected cells
T3 sequence (O95136 whole entry): as above
Experimental: The following assay can be used for determination of S1PR2 activation. The [^35S] GTPγS assay measures the level of G protein activation following agonist occupation of a GPCR, by determining the binding of the non-hydrolysable analog [^35S] GTPγS to Gα subunits.
The assay is performed in a 96 well plate where the following reagents are added. First 50 μL compound is added into the assay plate, followed by addition of 20 μL S1P at EC80 concentration (concentration which gives 80% of the activity of S1PR2). Then, 30 μL of a mixture consisting of membranes-GTPγS-SpA beads is added [mixture consists of 2.5 μg/well membranes derived from stable cell line over expressing S1PR2 (membranes are pre-incubated with 1 μM GDP for 15 min at 4° C.), 0.1 nM [35S]GTPγS (Perkin Elmer, NEG030) and 0.5 mg/well PVT-WGA SpA beads (Perkin Elmer, RPNQ0001)]. All components are diluted in assay buffer containing 20 mM Tris pH 7.5; 10 mM MgCl2; 100 mM NaCl; 0.1% BSA FAF; 50 ug/ml saponin. After an incubation for 4 h at room temperature, plates are centrifuged at 2000 rpm during 20 min. Plates are read on a Topcount reader (Perkin Elmer) immediately after centrifugation (readout time, 1 min/well).

[3] = molecular target: T4, human GPCR sphingosine 1-phosphate receptor 5 (S1PR5) (Homo sapiens, UniProt Q9H228); assay: S1PR5 selectivity assay (Ca2+ flux, antagonist, S1PR5 specific agonist trigger); assay type: cell-based; conditions: S1P5 antagonist EC50, CHO cells overexpressing human S1PR5 and Gq protein
T4 construct: host or cells: CHO
T4 sequence (Q9H228 whole entry): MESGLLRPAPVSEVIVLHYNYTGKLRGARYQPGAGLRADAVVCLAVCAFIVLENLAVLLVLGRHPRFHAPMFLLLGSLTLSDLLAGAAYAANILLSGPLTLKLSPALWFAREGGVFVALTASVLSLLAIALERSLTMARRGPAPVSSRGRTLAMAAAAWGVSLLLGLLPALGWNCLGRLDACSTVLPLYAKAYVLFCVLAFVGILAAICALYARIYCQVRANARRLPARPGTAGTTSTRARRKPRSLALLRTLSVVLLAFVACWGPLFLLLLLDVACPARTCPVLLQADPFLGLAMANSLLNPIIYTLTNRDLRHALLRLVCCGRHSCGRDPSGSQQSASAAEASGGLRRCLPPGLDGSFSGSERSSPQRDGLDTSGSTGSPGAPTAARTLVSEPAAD
Experimental: as §1, §2, §3, §4

| Structure (SMILES) | pEC50 [1] | pEC50 [2] | pEC50 (S1PR2) | pEC50 [3] |
| --- | --- | --- | --- | --- |
| Cc1cc(CNC(=O)Nc2cnc(OCC(F)F)c(Cl)c2)nnc1-c1cn(C)nc1C(F)(F)F [Compound 9, 1-[5-chloro-6-(2,2-difluoroethoxy)-3-pyridyl]-3-[[5-methyl-6-[1-methyl-3-(trifluoromethyl)pyrazol-4-yl]pyridazin-3-yl]methyl]urea] | ≤ 4.70 | 7.63 | 6.27 | ≤ 4.70 |
| CCOc1ncc(NC(=O)NCc2cc(C)c(-c3cn(C)nc3C(F)(F)F)nn2)cc1C(F)(F)F [Compound 10, 1-[6-ethoxy-5(trifluoromethyl)-3-pyridyl]-3-[[5-methyl-6-[1-methyl-3-(trifluoromethyl)pyrazol-4-yl]pyridazin-3-yl]methyl]urea] | ≤ 4.70 | 7.82 | 6.55 | ≤ 4.70 |
| CCOc1cc(NC(=O)NCc2cc(C)c(-c3cn(COC)nc3C(F)(F)F)nn2)cc(Cl)n1 [Compound 15] | 5.18 | 8.04 | 7.04 | ≤ 4.70 |
| Cc1cc(CNC(=O)Nc2cc(Cl)nc(OCC(F)F)c2)nnc1-c1cn(C)nc1C(F)(F)F [Compound 17, 1-[2-chloro-6-(2,2-difluoroethoxy)-4-pyridyl]-3-[[5-methyl-6-[1-methyl-3-(trifluoromethyl)pyrazol-4-yl]pyridazin-3-yl]methyl]urea] | 5.31 | 8.07 | 7.44 | 5.18 |
| CCOc1nc(Cl)cc(NC(=O)NCc2cc(C)c(-c3cn(C)nc3C(F)(F)F)nn2)c1C [Compound 20, 1-(6-chloro-2-ethoxy-3-methyl-4-pyridyl)-3-[[5-methyl-6-[1-methyl-3-(trifluoromethyl)pyrazol-4-yl]pyridazin-3-yl]methyl]urea] | 5.41 | 8.06 | 7.82 | 5.68 |
| CCOc1cc(NC(=O)NCc2cc(C)c(-c3cn(C)nc3C(F)(F)F)nn2)cc(C2CC2)n1 [Compound 22, 1-(2-cyclopropyl-6-ethoxy-4-pyridyl)-3-[[5-methyl-6-[1-methyl-3-(trifluoromethyl)pyrazol-4-yl]pyridazin-3-yl]methyl]urea] | 5.18 | 7.76 | 7.07 | ≤ 4.70 |
| Cc1cc(CNC(=O)Nc2cnc(Cl)c(OCC(F)F)c2)nnc1-c1cn(C)nc1C(F)(F)F [Compound 23, 1-[6-chloro-5-(2,2-difluoroethoxy)-3-pyridyl]-3-[[5-methyl-6-[1-methyl-3-(trifluoromethyl)pyrazol-4-yl]pyridazin-3-yl]methyl]urea] | ≤ 4.70 | 7.97 | 7.13 | ≤ 4.70 |
| CCOc1cc(NC(=O)NCc2cc(C)c(-c3cn(C)nc3C(F)(F)F)nn2)cnc1Cl [Compound 24, 1-(6-chloro-5-ethoxy-3-pyridyl)-3-[[5-methyl-6-[1-methyl-3-(trifluoromethyl)pyrazol-4-yl]pyridazin-3-yl]methyl]urea] | ≤ 4.70 | 8.06 | 7.27 | ≤ 4.70 |
| COCCOc1cc(NC(=O)NCc2cc(C)c(-c3cn(C)nc3C(F)(F)F)nn2)cc(C(F)(F)F)n1 [Compound 25, 1-[2-(2-methoxyethoxy)-6-(trifluoromethyl)-4-pyridyl]-3-[[5-methyl-6-[1-methyl-3-(trifluoromethyl)pyrazol-4-yl]pyridazin-3-yl]methyl]urea] | ≤ 4.70 | 6.10 | 5.69 | ≤ 4.70 |
| Cc1cc(CNC(=O)Nc2cc(OC3CCOC3)nc(C(F)(F)F)c2)nnc1-c1cn(C)nc1C(F)(F)F (centres unmarked) [Compound 26, 1-[[5-methyl-6-[1-methyl-3-(trifluoromethyl)pyrazol-4-yl]pyridazin-3-yl]methyl]-3-[2-tetrahydrofuran-3-yloxy-6-(trifluoromethyl)-4-pyridyl]urea] | ≤ 4.70 | 6.96 | 6.11 | ≤ 4.70 |
| COCCOc1cc(NC(=O)NCc2cc(C)c(-c3cn(C)nc3C(F)(F)F)nn2)cc(Cl)n1 [Compound 27, 1-[2-chloro-6-(2-methoxyethoxy)-4-pyridyl]-3-[[5-methyl-6-[1-methyl-3-(trifluoromethyl)pyrazol-4-yl]pyridazin-3-yl]methyl]urea] | ≤ 4.70 | 6.38 | 6.19 | ≤ 4.70 |
| Cc1cc(CNC(=O)Nc2cc(C#N)nc(OCC(F)F)c2)nnc1-c1cn(C)nc1C(F)(F)F [Compound 28, 1-[2-cyano-6-(2,2-difluoroethoxy)-4-pyridyl]-3-[[5-methyl-6-[1-methyl-3-(trifluoromethyl)pyrazol-4-yl]pyridazin-3-yl]methyl]urea] | 5.18 | 7.80 | 7.05 | 5.18 |
| Cc1cc(CNC(=O)Nc2cc(OCC(C)(F)F)nc(C(F)(F)F)c2)nnc1-c1cn(C)nc1C(F)(F)F [Compound 34, 1-[2-(2,2-difluoropropoxy)-6-(trifluoromethyl)-4-pyridyl]-3-[[5-methyl-6-[1-methyl-3-(trifluoromethyl)pyrazol-4-yl]pyridazin-3-yl]methyl]urea] | 5.69 | 7.18 | 6.39 | 5.18 |
| Cc1cc(CNC(=O)Nc2cc(OCC3COCCO3)nc(C(F)(F)F)c2)nnc1-c1cn(C)nc1C(F)(F)F (centres unmarked) [Compound 37, 1-[2-(1,4-dioxan-2-ylmethoxy)-6-(trifluoromethyl)4-pyridyl]-3-[[5-methyl-6-[1-methyl-3-(trifluoromethyl)pyrazol-4-yl]pyridazin-3-yl]methyl]urea] | ≤ 4.70 | 5.27 | 5.02 | ≤ 4.70 |
| Cc1cc(CNC(=O)Nc2ccnc(C(F)(F)F)c2)nnc1-c1cn(C)nc1C(F)(F)F [Compound 43, 1-[[5-methyl-6-[1-methyl-3-(trifluoromethyl)pyrazol-4-yl]pyridazin-3-yl]methyl]-3-[2-(trifluoromethyl)-4-pyridyl]urea] | ≤ 4.70 | 5.22 | 5.33 | ≤ 4.70 |
| Cc1cc(CNC(=O)Nc2ccnc(Cl)c2)nnc1-c1cn(C)nc1C(F)(F)F [Compound 44, 1-(2-chloro-4-pyridyl)-3-[[5-methyl-6-[1-methyl-3-(trifluoromethyl)pyrazol-4-yl]pyridazin-3-yl]methyl]urea] | ≤ 4.70 | 5.35 | 5.38 | ≤ 4.70 |
| CCOc1nc(C#N)cc(NC(=O)NCc2cc(C)c(-c3cn(C)nc3C(F)(F)F)nn2)c1C1CC1 [Compound 58, 1-(6-cyano-3-cyclopropyl-2-ethoxy-4-pyridyl)-3-[[5-methyl-6-[1-methyl-3-(trifluoromethyl)pyrazol-4-yl]pyridazin-3-yl]methyl]urea] | ≤ 4.70 | 7.16 | 6.65 | ≤ 4.70 |
